This is an account of results in patent US20230093861A1, “RAPAMYCIN ANALOGS AS MTOR INHIBITORS” (Revolution Medicines, Inc., priority 2017, published 2023).

Read-outs that look alike come from different tables or passages of the source.

One assay relates to P-P70S6K (T389). Put plainly: Cell based AlphaLISA assay, inhibition of P-P70S6K (T389) (mTORC1 substrate phosphorylation) in MDA-MB-468 cells. The conditions noted are these: Homo sapiens, 4 h, AlphaLISA, two to four hours at 37° C., read-out: pIC50 for Inhibition of mTORC1 and mTORC2 Substrate Phosphorylation, P-P70S6K-(T389) (converted). In outline: (§1)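 After treatment, cells were lysed in the kit's buffer once assay medium was withdrawn. Duplicate Alpha measurements tracked each phospho-epitope, and dose-response data were fitted to IC50 following normalization to control wells.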

Another assay relates to P-Akt (S473). Put plainly: Cell based AlphaLISA assay, inhibition of P-Akt (S473) (mTORC2 substrate phosphorylation) in MDA-MB-468 cells. As to conditions: Homo sapiens, AlphaLISA, two to four hours at 37° C., read-out: pIC50 for Inhibition of mTORC1 and mTORC2 Substrate Phosphorylation, p-AKT 1/2/3 -(S473) (converted). In outline: as §1
Another assay relates to P-4E-BP1 (T37/46). The assay is described as follows: Cell based AlphaLISA assay, inhibition of P-4E-BP1 (T37/46) (mTORC1 substrate phosphorylation) in MDA-MB-468 cells. The conditions noted are these: Homo sapiens, AlphaLISA, two to four hours at 37° C., read-out: pIC50 for Inhibition of mTORC1 and mTORC2 Substrate Phosphorylation, P-4E-BP1-(T37/46) (converted). In outline: as §1
A general note: Bead proximity is the source of the signal in Alpha formats.

On to `CO[C@H]1C[C@@H]2CC[C@@H](C)[C@@](O)(O2)C(=O)C(=O)N2CCCC[C@H]2C(=O)O[C@H]([C@H](C)C[C@@H]2CC[C@@H](OCCCCc3cn(CCOCCOCCOCCOCCOCCOCCOCCOCCNC(=O)c4ccc(-c5ccc6c(N7CCOC[C@H]7C)nc(N7CCOC[C@H]7C)nc6n5)cc4)nn3)[C@H](OC)C2)CC(=O)[C@H](C)/C=C(\C)[C@@H](O)[C@@H](OC)C(=O)[C@H](C)C[C@H](C)/C=C/C=C/C=C/1C` [Example 107], for which the IC50 with P-P70S6K (T389) was below 1 nM; in the assay on P-Akt (S473) (MDA-MB-468, 4 h), below 3.16 nM; with P-4E-BP1 (T37/46) (MDA-MB-468, 4 h), below 3.16 nM.
`CO[C@H]1C[C@@H]2CC[C@@H](C)[C@@](O)(O2)C(=O)C(=O)N2CCCC[C@H]2C(=O)O[C@H]([C@H](C)C[C@@H]2CC[C@H](n3cc(CCCC(=O)NCCOCCOCCOCCOCCC(=O)NCCOCCOCCOCCOCCC(=O)NCCCCn4nc(-c5ccc6oc(N)nc6c5)c5c(N)ncnc54)nn3)[C@H](OC)C2)CC(=O)[C@H](C)/C=C(\C)[C@@H](O)[C@@H](OC)C(=O)[C@H](C)C[C@H](C)/C=C/C=C/C=C/1C` [Example 134]: the IC50 with P-P70S6K (T389) is 1 to 10 nM; with P-Akt (S473) (MDA-MB-468, 4 h), 3.16 to 31.6 nM; in the assay on P-4E-BP1 (T37/46) (MDA-MB-468, 4 h), 3.16 to 31.6 nM.
On to `CO[C@H]1C[C@@H]2CC[C@@H](C)[C@@](O)(O2)C(=O)C(=O)N2CCCC[C@H]2C(=O)O[C@H]([C@H](C)C[C@@H]2CC[C@@H](O)[C@H](OC)C2)C[C@@H](OC)[C@H](C)/C=C(\C)[C@@H](O)[C@@H](OC)C(=NOCc2cn(CCOCCOCCOCCOCCOCCOCCOCCOCCC(=O)NCCCCn3nc(-c4ccc5oc(N)nc5c4)c4c(N)ncnc43)nn2)[C@H](C)C[C@H](C)/C=C/C=C/C=C/1C` [Example 17], for which the IC50 was 1 to 10 nM in the assay on P-P70S6K (T389); 31.6 to 1000 nM with P-Akt (S473) (MDA-MB-468, 4 h); 3.16 to 31.6 nM in the assay on P-4E-BP1 (T37/46) (MDA-MB-468, 4 h).
In the same order, the values of `CO[C@H]1C[C@@H]2CC[C@@H](C)[C@@](O)(O2)C(=O)C(=O)N2CCCC[C@H]2C(=O)O[C@H]([C@H](C)C[C@@H]2CC[C@H](n3cc(COC(=O)NCCOCCOCCC(=O)NCc4cnc(N5CCN(c6ncc(C(=O)NCCCCn7nc(-c8cc9cc(O)ccc9[nH]8)c8c(N)ncnc87)cn6)CC5)nc4)nn3)[C@H](OC)C2)CC(=O)[C@H](C)/C=C(\C)[C@@H](O)[C@@H](OC)C(=O)[C@H](C)C[C@H](C)/C=C/C=C/C=C/1C` [Example 182] are below 1 nM, above 1000 nM and above 1000 nM.
For the compound `CO[C@H]1C[C@@H]2CC[C@@H](C)[C@@](O)(O2)C(=O)C(=O)N2CCCC[C@H]2C(=O)O[C@H]([C@H](C)C[C@@H]2CC[C@H](n3nncc3-c3cccc(-c4cnc(N5CCN(C(=O)CCc6cn(CCOCCOCCC(=O)NCCCCn7nc(-c8ccc9oc(N)nc9c8)c8c(N)ncnc87)nn6)CC5)nc4)c3)[C@H](OC)C2)CC(=O)[C@H](C)/C=C(\C)[C@@H](O)[C@@H](OC)C(=O)[C@H](C)C[C@H](C)/C=C/C=C/C=C/1C` [Example 49], the IC50 is below 1 nM in the assay with P-P70S6K (T389); 31.6 to 1000 nM in the assay with P-Akt (S473) (MDA-MB-468, 4 h); below 3.16 nM in the assay with P-4E-BP1 (T37/46) (MDA-MB-468, 4 h).
In the same order, the values of `CO[C@H]1C[C@@H]2CC[C@@H](C)[C@@](O)(O2)C(=O)C(=O)N2CCCC[C@H]2C(=O)O[C@H]([C@H](C)C[C@@H]2CC[C@H](n3cc(CCCC(=O)NCCOCCOCCOCCC(=O)NCCOCCOCCOCCC(=O)NCCCCn4nc(-c5cc6cc(O)ccc6[nH]5)c5c(N)ncnc54)nn3)[C@H](OC)C2)C[C@@H](OC)[C@H](C)/C=C(\C)[C@@H](O)[C@@H](OC)C(=O)[C@H](C)C[C@H](C)/C=C/C=C/C=C/1C` [Example 179] are 1 to 10 nM, above 1000 nM and 31.6 to 1000 nM.
The like results for `CO[C@H]1C[C@@H]2CC[C@@H](C)[C@@](O)(O2)C(=O)C(=O)N2CCCC[C@H]2C(=O)O[C@H]([C@H](C)C[C@@H]2CC[C@@H](OCCC(C)(C)Cc3cn(CCOCCOCCOCCOCCOCCOCCOCCOCCC(=O)NCCCCn4nc(-c5ccc6oc(N)nc6c5)c5c(N)ncnc54)nn3)[C@H](OC)C2)CC(=O)[C@H](C)/C=C(\C)[C@@H](O)[C@@H](OC)C(=O)[C@H](C)C[C@H](C)/C=C/C=C/C=C/1C` [Example 58] were, in that order, below 1 nM, below 3.16 nM and below 3.16 nM.
The like results for `CO[C@H]1C[C@@H]2CC[C@@H](C)[C@@](O)(O2)C(=O)C(=O)N2CCCC[C@H]2C(=O)O[C@H]([C@H](C)C[C@@H]2CC[C@@H](OCCCCc3cn(CCOCCOCCOCCOCCOCCOCCC(=O)N4CCN(c5ccc(-n6c(=O)ccc7cnc8ccc(-c9cnc%10ccccc%10c9)cc8c76)cc5C(F)(F)F)CC4)nn3)[C@H](OC)C2)CC(=O)[C@H](C)/C=C(\C)[C@@H](O)[C@@H](OC)C(=O)[C@H](C)C[C@H](C)/C=C/C=C/C=C/1C` [Example 67] were, in that order, below 1 nM, below 3.16 nM and below 3.16 nM.
Consider `CO[C@H]1C[C@@H]2CC[C@@H](C)[C@@](O)(O2)C(=O)C(=O)N2CCCCC2C(=O)O[C@H]([C@H](C)C[C@@H]2CC[C@H](n3cc(COCCOCCOCCOCCOCCOCCOCCOCCOCCOCCC(=O)NCCCCn4nc(-c5ccc6oc(N)nc6c5)c5c(N)ncnc54)nn3)[C@H](OC)C2)CC(=O)[C@H](C)/C=C(\C)[C@@H](O)[C@@H](OC)C(=O)[C@H](C)C[C@H](C)/C=C/C=C/C=C/1C` (stereo in doubt) [Example 195], for which the IC50 in the assay with P-P70S6K (T389) is 1 to 10 nM; with P-Akt (S473) (MDA-MB-468, 4 h) it was 3.16 to 31.6 nM; with P-4E-BP1 (T37/46) (MDA-MB-468, 4 h), 3.16 to 31.6 nM.
`CO[C@H]1C[C@@H]2CC[C@@H](C)[C@@](O)(O2)C(=O)C(=O)N2CCCC[C@H]2C(=O)O[C@H]([C@H](C)C[C@@H]2CC[C@H](n3cc(COC(=O)NCCOCCOCCOCCC(=O)NCCOCCOCCOCCC(=O)NCCCCn4nc(-c5ccc6oc(N)nc6c5)c5c(N)ncnc54)nn3)[C@H](OC)C2)CC(=O)[C@H](C)/C=C(\C)[C@@H](O)[C@@H](OC)C(=O)[C@H](C)C[C@H](C)/C=C/C=C/C=C/1C` [Example 122]: the IC50 is 1 to 10 nM with P-P70S6K (T389); 3.16 to 31.6 nM in the assay with P-Akt (S473) (MDA-MB-468, 4 h); 3.16 to 31.6 nM in the assay on P-4E-BP1 (T37/46) (MDA-MB-468, 4 h).
For `CO[C@H]1C[C@@H]2CC[C@@H](C)[C@@](O)(O2)C(=O)C(=O)N2CCCC[C@H]2C(=O)O[C@H]([C@H](C)C[C@@H]2CC[C@@H](OCCCCc3cn(CCOCCOCCOCCOCCOCCC(=O)NCCCCn4nc(-c5ccc6oc(N)nc6c5)c5c(N)ncnc54)nn3)[C@H](OC)C2)CC(=O)[C@H](C)/C=C(\C)[C@@H](O)[C@@H](OC)C(=O)[C@H](C)C[C@H](C)/C=C/C=C/C=C/1C` [Example 2], the results for the IC50 in the assay with P-P70S6K (T389), in the assay on P-Akt (S473) (4 h) and with P-4E-BP1 (T37/46) (4 h) were below 1 nM, 31.6 to 1000 nM and 3.16 to 31.6 nM, respectively.
On to `CO[C@H]1C[C@@H]2CC[C@@H](C)[C@@](O)(O2)C(=O)C(=O)N2CCCC[C@H]2C(=O)O[C@H]([C@H](C)C[C@@H]2CC[C@@H](OCCCCc3cn(CCOCCOCCOCCOCCOCCOCCOCCOCCC(=O)N4CCC(Cn5nc(-c6ccc7oc(N)nc7c6)c6c(N)ncnc65)CC4)nn3)[C@H](OC)C2)CC(=O)[C@H](C)/C=C(\C)[C@@H](O)[C@@H](OC)C(=O)[C@H](C)C[C@H](C)/C=C/C=C/C=C/1C` [Example 90], for which the IC50 in the assay on P-P70S6K (T389) was below 1 nM; with P-Akt (S473) (4 h), below 3.16 nM; with P-4E-BP1 (T37/46) (4 h), below 3.16 nM.
For the compound `CO[C@H]1C[C@@H]2CC[C@@H](C)[C@@](O)(O2)C(=O)C(=O)N2CCCC[C@H]2C(=O)O[C@H]([C@H](C)C[C@@H]2CC[C@@H](O)[C@H](OC)C2)C[C@@H](O)[C@H](C)/C=C(\C)[C@@H](O)[C@@H](OC)C(=NOCc2cn(CCOCCOCCOCCOCCOCCOCCC(=O)NCCCCn3nc(-c4ccc5oc(N)nc5c4)c4c(N)ncnc43)nn2)[C@H](C)C[C@H](C)/C=C/C=C/C=C/1C` [Example 51], the IC50 is 1 to 10 nM in the assay with P-P70S6K (T389); 31.6 to 1000 nM in the assay on P-Akt (S473) (MDA-MB-468, 4 h); 3.16 to 31.6 nM with P-4E-BP1 (T37/46) (MDA-MB-468, 4 h).
In the same order, the values of `CO[C@H]1C[C@@H]2CC[C@@H](C)[C@@](O)(O2)C(=O)C(=O)N2CCCC[C@H]2C(=O)O[C@H]([C@H](C)C[C@@H]2CC[C@H](n3cc(COC(=O)NCCOCCOCCOCCC(=O)NCCOCCOCCOCCC(=O)NCCCCn4nc(-c5ccc6oc(N)nc6c5)c5c(N)ncnc54)nn3)[C@H](OC)C2)C/C(=N/OCc2ccccc2)[C@H](C)/C=C(\C)[C@@H](O)[C@@H](OC)C(=O)[C@H](C)C[C@H](C)/C=C/C=C/C=C/1C` [Example 156] are above 1000 nM, above 1000 nM and above 1000 nM.
As for `CO[C@@H]1C[C@H](C[C@@H](C)[C@@H]2CC(=O)[C@H](C)/C=C(\C)[C@@H](O)[C@@H](OC)C(=O)[C@H](C)C[C@H](C)/C=C/C=C/C=C(\C)[C@@H](c3ccco3)C[C@@H]3CC[C@@H](C)[C@@](O)(O3)C(=O)C(=O)N3CCCC[C@H]3C(=O)O2)CC[C@H]1OCCCCc1cn(CCOCCOCCOCCOCCOCCOCCOCCOCCC(=O)NCCCCn2nc(-c3ccc4oc(N)nc4c3)c3c(N)ncnc32)nn1` [Example 18], the IC50 is below 1 nM in the assay on P-P70S6K (T389); below 3.16 nM in the assay with P-Akt (S473) (MDA-MB-468, 4 h); below 3.16 nM in the assay on P-4E-BP1 (T37/46) (MDA-MB-468, 4 h).
